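The compound was tested at five concentrations on cells cultured in 96-well plates, with a 48-hour exposure period. Here, GI50 denotes the concentration required for 50% inhibition of growth. TGI marks complete inhibition of growth.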
Tests used:
Experiment in all cases: DTP human tumour cell line panel, 48 h
786-0 renal = test system: 786-0 renal
A498 renal = test system: A498 renal
A549 NSCLC = test system: A549 NSCLC
ACHN renal = test system: ACHN renal
BT-549 breast = test system: BT-549 breast
CAKI-1 renal = test system: CAKI-1 renal
CCRF-CEM leukemia = test system: CCRF-CEM leukemia
COLO 205 colon = test system: COLO 205 colon
DU-145 prostate = test system: DU-145 prostate
EKVX NSCLC = test system: EKVX NSCLC
HCC-2998 colon = test system: HCC-2998 colon
HCT-116 colon = test system: HCT-116 colon
HCT-15 colon = test system: HCT-15 colon
HOP-62 NSCLC = test system: HOP-62 NSCLC
HOP-92 NSCLC = test system: HOP-92 NSCLC
HS 578T breast = test system: HS 578T breast
HT29 colon = test system: HT29 colon
IGROV1 ovarian = test system: IGROV1 ovarian
K-562 leukemia = test system: K-562 leukemia
KM12 colon = test system: KM12 colon
LOX IMVI melanoma = test system: LOX IMVI melanoma
M14 melanoma = test system: M14 melanoma
MALME-3M melanoma = test system: MALME-3M melanoma
MCF7 breast = test system: MCF7 breast
MDA-MB-231 breast = test system: MDA-MB-231 breast
MDA-MB-435 = test system: MDA-MB-435
MOLT-4 leukemia = test system: MOLT-4 leukemia
NCI-H226 lung = test system: NCI-H226 lung
NCI-H23 lung = test system: NCI-H23 lung

## O=C(Nc1cccc(-c2ccc(Cl)c(C(F)(F)F)c2)c1)C1CCN(Cc2cccc3cccnc23)CC1
786-0 renal
  GI50: 1700 nM
  TGI: 3260 nM
A498 renal
  GI50: 1330 nM
  TGI: 2650 nM
A549 NSCLC
  GI50: 1910 nM
  TGI: 3850 nM
ACHN renal
  GI50: 1760 nM
  TGI: 3140 nM
BT-549 breast
  GI50: 1650 nM
  TGI: 3180 nM
CAKI-1 renal
  GI50: 1610 nM
  TGI: 2970 nM
CCRF-CEM leukemia
  GI50: 2190 nM
  TGI: 5850 nM
COLO 205 colon
  GI50: 1450 nM
  TGI: 3120 nM
DU-145 prostate
  GI50: 1790 nM
  TGI: 3210 nM
EKVX NSCLC
  GI50: 1730 nM
  TGI: 3150 nM
HCC-2998 colon
  GI50: 1430 nM
  TGI: 2850 nM
HCT-116 colon
  GI50: 1260 nM
  TGI: 2760 nM
HCT-15 colon
  GI50: 1370 nM
  TGI: 2790 nM
HOP-62 NSCLC
  GI50: 1850 nM
  TGI: 3740 nM
HOP-92 NSCLC
  GI50: 1360 nM
  TGI: 2830 nM
HS 578T breast
  GI50: 2140 nM
  TGI: 4940 nM
HT29 colon
  GI50: 1210 nM
  TGI: 3330 nM
IGROV1 ovarian
  GI50: 1550 nM
  TGI: 2990 nM
K-562 leukemia
  GI50: 1100 nM
  TGI: 5990 nM
KM12 colon
  GI50: 1800 nM
  TGI: 3430 nM
LOX IMVI melanoma
  GI50: 1500 nM
  TGI: 2890 nM
M14 melanoma
  GI50: 1640 nM
  TGI: 3160 nM
MALME-3M melanoma
  GI50: 1650 nM
  TGI: 3080 nM
MCF7 breast
  GI50: 1440 nM
  TGI: 2950 nM
MDA-MB-231 breast
  GI50: 1840 nM
  TGI: 3410 nM
MDA-MB-435
  GI50: 1710 nM
  TGI: 3100 nM
MOLT-4 leukemia
  GI50: 1790 nM
  TGI: 4520 nM
NCI-H226 lung
  GI50: 1880 nM
  TGI: 3890 nM
NCI-H23 lung
  GI50: 1640 nM

— PubChem BioAssay (NCI)
